# Reference: US20170081368A1, “PEPTIDES AS OXYTOCIN AGONISTS” (Hoffmann-La Roche Inc., priority 2014, published 2017)
# *1 amine or outer side, *2 acyl side, *3 side chain or, on linkers, in order; H or OH if unused. Where a SMILES comes first, the peptide text is derived from it. Bridges are numbered along the chain shown (N, C = ends). [ ]: non-standard residue; d: D form. Hcy(O2-CH2CH2CO) = O=C([C@H](CCS(=O)(=O)CCC(=O)[*:3])N[*:1])[*:2]; αMeL = CC(C)C[C@](C)(N)C(=O)O; Chg = N[C@H](C(=O)O)C1CCCCC1; NcPrGly = O=C(O)CNC1CC1
# Legend:
# Format in all cases: cell-based
# [1] = molecular target: T1, human Oxytocin (OTR) receptor (Homo sapiens, UniProt P30559); assay: Calcium flux assay (FLIPR) in CHO cells expressing human OTR; conditions: for Emax: CHO, maximum response normalized to endogenous full agonist = 100%, read-out: hOT efficacy; for EC50: agonist mode, CHO cells, calcium flux FLIPR, read-out: hOT EC50
# T1 construct: expressed in transfected cells
# T1 sequence (P30559 1-389): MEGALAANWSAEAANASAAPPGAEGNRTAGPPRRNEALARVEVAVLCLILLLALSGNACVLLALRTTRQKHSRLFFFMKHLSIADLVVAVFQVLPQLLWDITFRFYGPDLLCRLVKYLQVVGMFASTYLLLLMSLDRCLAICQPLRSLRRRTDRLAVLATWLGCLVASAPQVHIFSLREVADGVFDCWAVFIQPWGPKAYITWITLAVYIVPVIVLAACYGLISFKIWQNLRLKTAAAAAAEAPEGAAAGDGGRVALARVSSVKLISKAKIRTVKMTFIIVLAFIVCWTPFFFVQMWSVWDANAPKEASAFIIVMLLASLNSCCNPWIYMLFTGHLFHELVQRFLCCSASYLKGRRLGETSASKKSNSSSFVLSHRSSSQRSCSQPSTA
# Excerpt: (§1) Chines Hamster Ovary (CHO) cells were transfected with expression plasmids encoding either the human Vla, the human Oxytocin (OTR) or the humanV2 receptor, the later in combination with the chimeric Gqs5 G protein to redirect the signal to Calcium flux. Stable cells were cloned by limiting dilution to yield monoclonal cell lines expressing either human Vla, human V2+Gqs5 or human OTR receptors and selected based on functional responses detected on a fluorometric imaging plate reader (FLIPR) detecting Calcium flux in the cell after receptor activation. The stable cell lines were grown in F-12 K Nutrient Mixture (Kaighns Modification), containing 10% foetal bovine serum (FBS), 1% penicillin-streptomycin, 1% L-glutamate, 200 ug/ml Geneticin at 37° C. in a 10% CO2 incubator at 95% humidity.
# (§2) Calcium Flux Assays Using Fluorescent Imaging (Fluorometric Imaging Plate Reader, FLIPR)
# (§3) On the afternoon before the assay, cells were plated at a density of 50,000 cells/well into black 96 well plates with clear bottoms to allow cell inspection and fluorescence measurements from the bottom of each well. The density of cells was sufficient to yield a confluent monolayer the next day. Hanks balanced salt solution, without phenol red, containing 20 mM HEPES (pH 7.3) and 2.5 mM probenecid (assay buffer) was prepared fresh for each experiment. Compound dilutions were made using a Beckman Biomek 2000 laboratory automation workstation, in assay buffer containing 1% DMSO. The dye-loading buffer consisted of a final concentration of 2 μM Fluo-4-AM (dissolved in DMSO and pluronic acid) in assay buffer. The existing culture media was removed from the wells and 100 μl of the dye-loading buffer was added to each well and incubated for approximately 60 min at 37° C. in a 5% CO2 incubator at 95% humidity. Once dye-loaded, the cells were washed thoroughly on an Embla cell washer with the assay buffer to remove any unincorporated dye. Exactly 100 μl assay buffer was left in each well.
# (§4) Each 96 well plate containing dye-loaded cells was placed into the FLIPR machine and the laser intensity set to a suitable level to detect low basal fluorescence. To test compounds as agonists, 25 μl diluted compound was added to the plate 10 seconds into the fluorescent measurements and fluorescent response was recorded for 5 minutes. The fluorescence data was normalized to the endogenous full agonist dose-response set at 100% for the maximum response and 0% for the minimum. Each agonist concentration-response curve was constructed using a four parameter logistic equation with Microsoft Excel XLFit as follows: Y=Minimum+((Maximum−Minimum)/(1+10^(LogEC50−X)nH)), where y is the % normalized fluorescence, minimum is the minimum y, maximum is the maximum y, log EC50 is the log10 concentration which produces 50% of the maximum induced fluorescence, x is the log10 of the concentration of the agonist compound and H is the slope of the curve (the Hill Coefficient). The maximum value gives the efficacy of the agonist test compound in percentage. The concentration of agonist that produced a half-maximal response is represented by the EC50 value, the logarithm of which yielded the pEC50 value.
# [2] = molecular target: T2, human V1a receptor (Homo sapiens, UniProt P37288); assay: Calcium flux assay (FLIPR) in CHO cells expressing human V1a; conditions: for EC50: agonist mode, CHO cells, calcium flux FLIPR, read-out: hV1a EC50
# T2 construct: expressed in transfected cells
# T2 sequence (P37288 whole entry): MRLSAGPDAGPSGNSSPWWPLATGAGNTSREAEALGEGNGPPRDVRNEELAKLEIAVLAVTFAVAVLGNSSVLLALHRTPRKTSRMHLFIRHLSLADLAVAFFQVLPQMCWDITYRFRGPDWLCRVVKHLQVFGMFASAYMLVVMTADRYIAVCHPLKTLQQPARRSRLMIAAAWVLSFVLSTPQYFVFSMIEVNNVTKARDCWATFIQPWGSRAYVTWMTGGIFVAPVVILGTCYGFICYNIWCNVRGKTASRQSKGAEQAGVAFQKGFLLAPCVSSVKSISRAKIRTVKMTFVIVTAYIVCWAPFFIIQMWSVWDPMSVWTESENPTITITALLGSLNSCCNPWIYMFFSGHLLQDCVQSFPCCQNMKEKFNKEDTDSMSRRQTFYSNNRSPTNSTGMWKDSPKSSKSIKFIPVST
# Excerpt: as §1, §2, §3, §4
# [3] = molecular target: T3, human V2 receptor (Homo sapiens, UniProt P30518); assay: Calcium flux assay (FLIPR) in CHO cells expressing human V2+Gqs5; conditions: for Emax: CHO, maximum response normalized to endogenous full agonist = 100%, read-out: hV2 efficacy; for EC50: agonist mode, CHO cells with chimeric Gqs5, calcium flux FLIPR, read-out: hV2 EC50
# T3 construct: expressed in transfected cells
# T3 sequence (P30518 whole entry): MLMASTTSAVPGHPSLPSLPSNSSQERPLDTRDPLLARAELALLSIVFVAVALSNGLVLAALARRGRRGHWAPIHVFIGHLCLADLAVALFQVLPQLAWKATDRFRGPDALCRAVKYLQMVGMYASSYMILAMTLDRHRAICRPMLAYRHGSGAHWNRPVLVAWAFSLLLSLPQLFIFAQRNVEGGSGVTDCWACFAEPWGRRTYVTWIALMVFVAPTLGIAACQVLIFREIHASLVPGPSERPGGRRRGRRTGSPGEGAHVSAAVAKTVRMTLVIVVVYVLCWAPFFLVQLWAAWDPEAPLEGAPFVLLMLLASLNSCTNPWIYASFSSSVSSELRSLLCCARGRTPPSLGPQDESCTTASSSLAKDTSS
# Excerpt: as §1, §2, §3, §4
SMILES,Emax [1] [%],EC50 [1] [nM],EC50 [2] [nM],Emax [3] [%],EC50 [3] [nM],hV1a efficacy ([2]; maximum response normalized to endogenous full agonist = 100%) [%]
"CC[C@H](C)[C@@H]1NC(=O)[C@H](Cc2ccc(O)cc2)NC(=O)CCS(=O)(=O)CC[C@@H](C(=O)N2CCC[C@H]2C(=O)N[C@@H](CC(C)C)C(=O)NCC(N)=O)NC(=O)[C@H](CC(N)=O)NC(=O)[C@H](CCC(N)=O)NC1=O [Example 1] (HELM PEPTIDE1{Y.I.Q.N.[O=C([C@H](CCS(=O)(=O)CCC(=O)[*:3])N[*:1])[*:2]].P.L.G.[am]}$PEPTIDE1,PEPTIDE1,1:R1-5:R3$$$V2.0)",120,0.8,1630,101,2980,
"CC[C@H](C)[C@@H]1NC(=O)[C@H](Cc2ccc(O)cc2)NC(=O)CCS(=O)(=O)CC[C@@H](C(=O)N(C)CC(=O)N[C@@H](CC(C)C)C(=O)NCC(N)=O)NC(=O)[C@H](CC(N)=O)NC(=O)[C@H](CCC(N)=O)NC1=O [Example 2] (HELM PEPTIDE1{Y.I.Q.N.[O=C([C@H](CCS(=O)(=O)CCC(=O)[*:3])N[*:1])[*:2]].[Sar].L.G.[am]}$PEPTIDE1,PEPTIDE1,1:R1-5:R3$$$V2.0)",107,0.8,> 27000,86,3980,
CC[C@H](C)[C@@H]1NC(=O)[C@H](Cc2ccc(O)cc2)NC(=O)CCS(=O)(=O)CC[C@@H](C(=O)N(CC(=O)N[C@@](C)(CC(C)C)C(=O)NCC(N)=O)C2CC2)NC(=O)[C@H](CC(N)=O)NC(=O)[C@H](CCC(N)=O)NC1=O [Example 28] (YIQN[Hcy(O2-CH2CH2CO)][NcPrGly][αMeL]G-NH2; lactam N-5),105,0.7,> 27000,129,9420,

# The next compounds have a lower EC50 [1] than those just listed; values first:
Emax [1] [%],EC50 [1] [nM],EC50 [2] [nM],Emax [3] [%],EC50 [3] [nM],hV1a efficacy ([2]; maximum response normalized to endogenous full agonist = 100%) [%],SMILES
125,0.5,> 27000,110,3730,,"CC[C@H](C)[C@@H]1NC(=O)[C@H](Cc2ccc(O)cc2)NC(=O)CCS(=O)(=O)CC[C@@H](C(=O)N(CC(=O)N[C@@H](CC(C)C)C(=O)NCC(N)=O)C2CC2)NC(=O)[C@H](CC(N)=O)NC(=O)[C@H](CCC(N)=O)NC1=O [Example 27] (HELM PEPTIDE1{Y.I.Q.N.[O=C([C@H](CCS(=O)(=O)CCC(=O)[*:3])N[*:1])[*:2]].[O=C(CN(C1CC1)[*:1])[*:2]].L.G.[am]}$PEPTIDE1,PEPTIDE1,1:R1-5:R3$$$V2.0)"
120,0.26,2230,155,2360,38,CC[C@H](C)[C@@H]1NC(=O)[C@H](Cc2ccc(O)cc2)NC(=O)CCS(=O)(=O)CC[C@@H](C(=O)N(CC(=O)N[C@H](C(=O)NCC(N)=O)C2CCCCC2)C2CC2)NC(=O)[C@H](CC(N)=O)NC(=O)[C@H](CCC(N)=O)NC1=O [Example 32] (YIQN[Hcy(O2-CH2CH2CO)][NcPrGly][Chg]G-NH2; lactam N-5)
